Reference: ChEMBL document CHEMBL1159111, “Design, synthesis and biological evaluation of chrysin long-chain derivatives as potential anticancer agents” (Bioorg Med Chem, 2010)
In brackets after ≈: the same amount, converted by molar mass.

What was measured:
HT-29 = assay: Antiproliferative activity against human HT-29 cells after 48 hrs by MTT assay; conditions: HT-29, 48 h
[1] = target: Epidermal growth factor receptor (Homo sapiens, UniProt P00533); assay: Inhibition of EGFR expressed in Sf9 cells assessed as inhibition of receptor autophosphorylation by DELFIA time resolved fluorimetry
Epidermal growth factor receptor, sequence (P00533 whole entry): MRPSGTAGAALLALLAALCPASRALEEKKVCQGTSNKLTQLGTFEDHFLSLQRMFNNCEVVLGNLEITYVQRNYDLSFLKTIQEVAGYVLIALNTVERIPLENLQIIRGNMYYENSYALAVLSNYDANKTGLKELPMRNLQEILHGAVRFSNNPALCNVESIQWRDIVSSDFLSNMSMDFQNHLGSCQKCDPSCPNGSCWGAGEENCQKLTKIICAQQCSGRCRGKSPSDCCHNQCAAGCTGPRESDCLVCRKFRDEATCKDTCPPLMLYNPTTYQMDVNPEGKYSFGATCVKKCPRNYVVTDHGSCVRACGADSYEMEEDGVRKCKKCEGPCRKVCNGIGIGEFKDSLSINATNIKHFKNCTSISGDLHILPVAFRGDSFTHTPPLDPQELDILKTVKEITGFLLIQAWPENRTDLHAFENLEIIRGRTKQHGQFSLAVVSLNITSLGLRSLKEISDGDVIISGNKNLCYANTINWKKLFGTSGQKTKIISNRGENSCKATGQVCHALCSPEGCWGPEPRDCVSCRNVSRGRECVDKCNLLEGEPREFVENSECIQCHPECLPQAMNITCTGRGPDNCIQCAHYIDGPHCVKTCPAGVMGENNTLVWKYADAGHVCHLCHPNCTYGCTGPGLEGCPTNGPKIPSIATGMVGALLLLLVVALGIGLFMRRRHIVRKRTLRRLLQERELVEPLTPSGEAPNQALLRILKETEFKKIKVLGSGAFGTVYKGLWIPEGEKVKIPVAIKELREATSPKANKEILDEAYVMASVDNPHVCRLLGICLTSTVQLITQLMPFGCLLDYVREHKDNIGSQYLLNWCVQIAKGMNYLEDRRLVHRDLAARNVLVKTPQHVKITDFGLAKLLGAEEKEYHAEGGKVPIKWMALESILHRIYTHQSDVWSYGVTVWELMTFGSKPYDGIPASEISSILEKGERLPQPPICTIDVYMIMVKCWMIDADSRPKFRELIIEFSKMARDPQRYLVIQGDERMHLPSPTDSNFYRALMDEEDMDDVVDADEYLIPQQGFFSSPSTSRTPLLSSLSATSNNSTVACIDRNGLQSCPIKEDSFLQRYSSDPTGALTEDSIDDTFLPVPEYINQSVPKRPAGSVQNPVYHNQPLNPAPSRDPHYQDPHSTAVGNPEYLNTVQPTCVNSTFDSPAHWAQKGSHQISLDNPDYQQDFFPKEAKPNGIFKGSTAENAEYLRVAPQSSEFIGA

Row | Compound | IC50 (HT-29) | IC50 [1]
1 | CCCCCCOC(=O)COc1cc(O)c2c(=O)cc(-c3ccccc3)oc2c1 | 77 µg/mL (≈ 194 µM) | 9120 nM
2 | CCCCCCCCCCCCCCCCCCCCOC(=O)COc1cc(O)c2c(=O)cc(-c3ccccc3)oc2c1 | 20 µg/mL (≈ 33.7 µM) | 1590 nM
3 | CCCCCCCCCCCCCCCCCCCCNC(=O)COc1cc(O)c2c(=O)cc(-c3ccccc3)oc2c1 | 19 µg/mL (≈ 32.1 µM) | 1350 nM
4 | CCCCCCCCCCCCCCCCCCOC(=O)COc1cc(O)c2c(=O)cc(-c3ccccc3)oc2c1 | 15 µg/mL (≈ 26.6 µM) | 692 nM
5 | CCCCCCCNC(=O)COc1cc(O)c2c(=O)cc(-c3ccccc3)oc2c1 | 65 µg/mL (≈ 159 µM) | 6280 nM
6 | CCCCCCCCNC(=O)COc1cc(O)c2c(=O)cc(-c3ccccc3)oc2c1 | 51 µg/mL (≈ 120 µM) | 5330 nM
7 | CCCCCCCCCNC(=O)COc1cc(O)c2c(=O)cc(-c3ccccc3)oc2c1 | 39 µg/mL (≈ 89.1 µM) | 3580 nM
8 | CCCCCCCCCCCCNC(=O)COc1cc(O)c2c(=O)cc(-c3ccccc3)oc2c1 | 16 µg/mL (≈ 33.4 µM) | 
9 | CCCCCCCCCCCCOC(=O)COc1cc(O)c2c(=O)cc(-c3ccccc3)oc2c1 | 24 µg/mL (≈ 49.9 µM) | 1720 nM
10 | CCCCCCCCCCCCCCOC(=O)COc1cc(O)c2c(=O)cc(-c3ccccc3)oc2c1 | 16 µg/mL (≈ 31.5 µM) | 
11 | CCCCCCCCCCCCCCCCOC(=O)COc1cc(O)c2c(=O)cc(-c3ccccc3)oc2c1 | 8.7 µg/mL (≈ 16.2 µM) | 48 nM
12 | CCCCCCCCCCCCCCNC(=O)COc1cc(O)c2c(=O)cc(-c3ccccc3)oc2c1 | 8 µg/mL (≈ 15.8 µM) | 316 nM
13 | CCCCCCCCCOC(=O)COc1cc(O)c2c(=O)cc(-c3ccccc3)oc2c1 | 43 µg/mL (≈ 98.1 µM) | 4960 nM
14 | CCCCCCCOC(=O)COc1cc(O)c2c(=O)cc(-c3ccccc3)oc2c1 | 58 µg/mL (≈ 141 µM) | 7230 nM
15 | CCCCCCCCCCOC(=O)COc1cc(O)c2c(=O)cc(-c3ccccc3)oc2c1 | 31 µg/mL (≈ 68.5 µM) | 3110 nM
16 | CCCCCCCCCCCCCCCCCCNC(=O)COc1cc(O)c2c(=O)cc(-c3ccccc3)oc2c1 | 11 µg/mL (≈ 19.5 µM) | 464 nM
17 | CCCCCCCCCCCCCCCCNC(=O)COc1cc(O)c2c(=O)cc(-c3ccccc3)oc2c1 | 4.2 µg/mL (≈ 7.84 µM) | 35 nM
18 | CCCCCCCCOC(=O)COc1cc(O)c2c(=O)cc(-c3ccccc3)oc2c1 | 51 µg/mL (≈ 120 µM) | 5840 nM
19 | CCCCCCCCCCNC(=O)COc1cc(O)c2c(=O)cc(-c3ccccc3)oc2c1 | 25 µg/mL (≈ 55.4 µM) | 2140 nM
20 | CCCCCCNC(=O)COc1cc(O)c2c(=O)cc(-c3ccccc3)oc2c1 | 67 µg/mL (≈ 169 µM) | 8710 nM
